Laboratory results taken from US5668001A, “3-hydroxy-3-methyl-glutaryl-coa synthase preparation with improved stability” (MCW Research Foundation, Inc., priority 1994, dated 1997).
Where two headings read alike, the source gives them in different places.

Columns and labels:
[1] = tested on: native avian liver HMG-CoA synthase (liver enzyme); conditions: read-out: Km AcCoA (Hydrolase Rxn.), absence of acetoacetyl-CoA; cited from earlier work
[2] = tested on: native avian liver HMG-CoA synthase (liver enzyme); conditions: read-out: Km AcCoA (Overall Rxn.), apparent value, in presence of 20 μM acetoacetylCoA; cited from earlier work
[3] = target: T1, recombinant avian cytosolic HMG-CoA synthase (wild type, alanine replacing proline at residue 2; SEQ ID NO:2) expressed in E. coli (Gallus gallus, UniProt P23228, P2A); assay: R.CoA binding by EPR (Scatchard plot); set-up: species or system avian (chicken); conditions: 50 mM sodium phosphate pH 7.0, ambient temperature
T1 construct: Isolation of full length cDNA encoding avian HMG-CoA synthase from a λgt11 library has been reported; made in house; host or cells: E. coli BL21(DE3), plasmid pACS (pET-3d)
T1 sequence (P23228 2-522 P2A limits assumed): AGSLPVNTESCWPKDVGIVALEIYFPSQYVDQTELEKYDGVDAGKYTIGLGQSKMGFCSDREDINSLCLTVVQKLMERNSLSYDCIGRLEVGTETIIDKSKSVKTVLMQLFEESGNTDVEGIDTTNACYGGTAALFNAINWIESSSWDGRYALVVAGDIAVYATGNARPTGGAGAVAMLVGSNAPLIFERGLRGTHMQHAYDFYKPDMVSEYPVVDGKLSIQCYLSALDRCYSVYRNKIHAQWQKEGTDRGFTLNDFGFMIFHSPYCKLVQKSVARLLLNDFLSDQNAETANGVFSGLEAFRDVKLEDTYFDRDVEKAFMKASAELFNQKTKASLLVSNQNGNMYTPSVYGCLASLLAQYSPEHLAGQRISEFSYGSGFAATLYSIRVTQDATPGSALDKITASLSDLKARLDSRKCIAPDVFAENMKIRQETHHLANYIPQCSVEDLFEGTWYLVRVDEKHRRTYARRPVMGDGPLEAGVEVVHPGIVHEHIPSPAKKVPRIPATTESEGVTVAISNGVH
Description: Measurement of R.CoA Binding by EPR. Conventional X-band EPR spectra were recorded using a Varian Century-Line 9-GHz spectrometer. The samples contained variable concentrations of HMG-CoA synthase sites (0-930 μM) in 50 mM sodium phosphate buffer, pH 7.0, and 50 or 150 μM R.CoA. R.CoA bound to HMG-CoA synthase was calculated by comparing the amplitudes of high, center, or low-field lines of sample spectra to the corresponding lines observed with a solution containing an equal concentration of R.CoA in buffer. The data were analyzed (Miziorko et al., (1979) Biochemistry 18, 399-403) by Scatchard plot using linear regression analysis. The spectra were recorded at ambient temperature with a modulation amplitude of 1 G, modulation frequency of 100 KHz and microwave power 5 mW. Field sweep was 100 G and time constant was 0.5 sec. The EPR spectrum of bound R.CoA was obtained at 5 G modulation amplitude and variable gain. Rotational correlation time of the bound spin label was determined using a spectral simulation algorithm (Freed, (1976) Spin Labeling: Theory and Applications (L. Berliner, ed.) 1, 53-132; Schneider, et al. (1989) Biological Magnetic Resonance 8, 1-76).

[4] = substrate: CC(=O)SCCNC(=O)CCNC(=O)[C@H](O)C(C)(C)COP(=O)(O)OP(=O)(O)OC[C@H]1O[C@@H](n2cnc3c(N)ncnc32)[C@H](O)[C@@H]1OP(=O)(O)O; assay: purified protein, by the assay type; conditions: other: recombinant enzyme

**Q.** Which results are given for `CC(=O)SCCNC(=O)CCNC(=O)[C@H](O)C(C)(C)COP(=O)(O)OP(=O)(O)OC[C@H]1O[C@@H](n2cnc3c(N)ncnc32)[C@H](O)[C@@H]1OP(=O)(O)O` [AcCoA, acetyl-CoA]?
**A.** Km [1]: 14 µM; Km [2]: 300 µM

**Q.** For `CC(C)(COP(=O)(O)OP(=O)(O)OC[C@H]1O[C@@H](n2cnc3c(N)ncnc32)[C@H](O)[C@@H]1OP(=O)(O)O)[C@@H](O)C(=O)NCCC(=O)NCCSC(=O)C1CC(C)(C)N([O])C1(C)C` (some centres unmarked) [R.CoA], which Kd [3] is on record?
**A.** 102 µM

B1: recombinant avian cytosolic HMG-CoA synthase (wild type, alanine replacing proline at residue 2; SEQ ID NO:2) expressed in E. coli (Gallus gallus; P2A) (protein)
chain: AGSLPVNTESCWPKDVGIVALEIYFPSQYVDQTELEKYDGVDAGKYTIGLGQSKMGFCSDREDINSLCLTVVQKLMERNSLSYDCIGRLEVGTETIIDKSKSVKTVLMQLFEESGNTDVEGIDTTNACYGGTAALFNAINWIESSSWDGRYALVVAGDIAVYATGNARPTGGAGAVAMLVGSNAPLIFERGLRGTHMQHAYDFYKPDMVSEYPVVDGKLSIQCYLSALDRCYSVYRNKIHAQWQKEGTDRGFTLNDFGFMIFHSPYCKLVQKSVARLLLNDFLSDQNAETANGVFSGLEAFRDVKLEDTYFDRDVEKAFMKASAELFNQKTKASLLVSNQNGNMYTPSVYGCLASLLAQYSPEHLAGQRISEFSYGSGFAATLYSIRVTQDATPGSALDKITASLSDLKARLDSRKCIAPDVFAENMKIRQETHHLANYIPQCSVEDLFEGTWYLVRVDEKHRRTYARRPVMGDGPLEAGVEVVHPGIVHEHIPSPAKKVPRIPATTESEGVTVAISNGVH
**Q.** Which results are given for B1?
**A.** Km ([4]; absence of acetoacetyl-CoA, pH 8.0, 30° C., pH 8.0): 12 µM; Km ([4]; apparent value, in presence of 20 μM acetoacetylCoA, 30° C., pH 8.2, pH 8.2): 270 µM
